Legend:
[1] = system: PC-3 cells; test: CyQUANT direct cell proliferation assay, PC-3; format: cell-based; conditions: WCE 25 μg/ml or 10 nM docetaxel, 48 h
Procedure: (§1) After 48 h, viable cell numbers were determined using CyQUANT direct cell proliferation assay.

[2] = system: PC-3 AR-negative prostate cancer cells; test: murine model for androgen independent prostate cancer, orthotopic PC-3 luciferase cells; format: in vivo, mice; conditions: daily WCE by gavage, weekly docetaxel into tail vein; 8 week course
Procedure: Tumor growth was measured weekly by bioluminescent imaging. Animals were also weighed weekly.

[3] = system: DU145 cells; test: CyQUANT direct cell proliferation assay, DU145; format: cell-based; conditions: WCE 25 μg/ml or 10 nM docetaxel, 48 h
Procedure: as §1

[4] = system: LNCaP cells; test: growth rate of LNCaP cells; format: cell-based; conditions: 20 μg/ml enzalutamide
[5] = system: LNCaP-CR cells; test: growth rate of LNCaP-CR cells; format: cell-based; conditions: 20 μg/ml enzalutamide

Row | SMILES | growth of PC-3 cells (FIG. 3A) [1] | body weight (FIG. 4B) [2] | growth of DU145 cells (FIG. 3B) [3] | growth of LNCaP cells (FIG. 2C) [4] | growth of LNCaP-CR cells (FIG. 2D) [5]
1 | CC(=O)O[C@@]12CO[C@@H]1C[C@H](O)[C@@]1(C)C(=O)[C@H](O)C3=C(C)[C@@H](OC(=O)[C@H](O)[C@@H](NC(=O)OC(C)(C)C)c4ccccc4)C[C@@](O)([C@@H](OC(=O)c4ccccc4)[C@H]21)C3(C)C [docetaxel] | inhibited growth | large decrease in body weight | inhibited growth |  | 
2 | CNC(=O)c1ccc(N2C(=S)N(c3ccc(C#N)c(C(F)(F)F)c3)C(=O)C2(C)C)cc1F [enzalutamide] |  |  |  | significantly inhibited the growth | significantly less growth inhibition

— patent publication US11096977B2, “Development of a standardized and effect-optimized herbal extract of Wedelia chinensis and its use for treating disease” (Academia Sinica, priority 2015, dated 2021)
